Reference: ChEMBL document CHEMBL1134725, “2-(Anilinomethyl)imidazolines as alpha(1)-adrenoceptor agonists: the identification of alpha(1A) subtype selective 2'-carboxylic acid esters and amides” (Bioorg Med Chem Lett, 2001)

Tests used:
[1] = molecular target: T1, Alpha-1A adrenergic receptor (Homo sapiens) (UniProt P35348); test: Efficacy against alpha 1A adrenoceptor in human expressed as phenylephrine response at the dose of 40 uM; type: functional
T1 sequence (whole entry): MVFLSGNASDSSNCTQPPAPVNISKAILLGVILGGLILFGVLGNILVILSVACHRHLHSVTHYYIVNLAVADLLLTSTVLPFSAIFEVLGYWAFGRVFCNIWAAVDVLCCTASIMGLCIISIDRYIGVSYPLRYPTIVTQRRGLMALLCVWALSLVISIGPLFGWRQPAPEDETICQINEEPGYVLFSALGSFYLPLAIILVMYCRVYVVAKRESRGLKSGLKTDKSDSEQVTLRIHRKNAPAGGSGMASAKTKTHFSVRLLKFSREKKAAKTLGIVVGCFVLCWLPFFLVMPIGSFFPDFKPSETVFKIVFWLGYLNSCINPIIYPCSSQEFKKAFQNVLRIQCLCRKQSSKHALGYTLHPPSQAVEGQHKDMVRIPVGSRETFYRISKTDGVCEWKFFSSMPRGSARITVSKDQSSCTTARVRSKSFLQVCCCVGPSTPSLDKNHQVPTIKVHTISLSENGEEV

[2] = molecular target: T2, Alpha-1A adrenergic receptor (Homo sapiens, UniProt P35348); test: Agonist potency against cloned human alpha 1A adrenoceptor expressed in rat-1 fibroblasts.; type: functional
T2 sequence (P35348 whole entry): T1 sequence (whole entry)

[3] = molecular target: T3, Alpha-1B adrenergic receptor (Homo sapiens) (UniProt P35368); test: Efficacy against alpha 1B-adrenoceptor in human expressed as phenylephrine response at the dose of 40 uM.; type: functional
T3 sequence (whole entry): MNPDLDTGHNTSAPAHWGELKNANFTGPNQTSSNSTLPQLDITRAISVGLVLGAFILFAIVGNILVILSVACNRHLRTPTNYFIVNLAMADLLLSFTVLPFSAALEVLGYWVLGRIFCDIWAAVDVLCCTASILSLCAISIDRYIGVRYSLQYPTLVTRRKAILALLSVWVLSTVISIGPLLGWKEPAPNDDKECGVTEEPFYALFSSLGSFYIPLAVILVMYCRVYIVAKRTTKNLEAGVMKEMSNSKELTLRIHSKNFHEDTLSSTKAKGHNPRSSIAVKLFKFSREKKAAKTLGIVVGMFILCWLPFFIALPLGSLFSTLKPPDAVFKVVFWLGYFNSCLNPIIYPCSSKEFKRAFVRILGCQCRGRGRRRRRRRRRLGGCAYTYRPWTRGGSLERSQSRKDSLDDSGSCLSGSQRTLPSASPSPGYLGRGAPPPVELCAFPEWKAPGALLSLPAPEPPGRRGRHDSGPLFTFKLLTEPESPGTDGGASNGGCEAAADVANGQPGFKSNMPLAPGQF

[4] = molecular target: T4, Alpha-1D adrenergic receptor (Homo sapiens) (UniProt P25100); test: Tested for efficacy against alpha 1D-adrenoceptor in human expressed as phenylephrine response at the dose of 40 uM; type: functional
T4 sequence (whole entry): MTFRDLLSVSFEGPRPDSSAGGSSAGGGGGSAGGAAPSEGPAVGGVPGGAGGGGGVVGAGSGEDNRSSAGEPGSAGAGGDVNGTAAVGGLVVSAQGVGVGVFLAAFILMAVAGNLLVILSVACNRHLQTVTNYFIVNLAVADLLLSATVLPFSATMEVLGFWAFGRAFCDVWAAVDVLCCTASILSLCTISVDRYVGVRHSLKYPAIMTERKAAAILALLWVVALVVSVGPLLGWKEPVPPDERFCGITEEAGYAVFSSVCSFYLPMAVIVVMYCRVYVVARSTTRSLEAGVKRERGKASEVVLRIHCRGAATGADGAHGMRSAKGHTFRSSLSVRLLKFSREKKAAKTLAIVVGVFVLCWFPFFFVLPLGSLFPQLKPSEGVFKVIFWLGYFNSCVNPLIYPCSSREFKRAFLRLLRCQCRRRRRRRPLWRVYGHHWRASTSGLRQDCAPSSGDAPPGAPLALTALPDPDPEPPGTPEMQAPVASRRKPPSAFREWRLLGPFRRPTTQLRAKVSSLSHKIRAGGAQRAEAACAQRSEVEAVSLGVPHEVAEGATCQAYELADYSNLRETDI

[5] = molecular target: T5, Alpha-1D adrenergic receptor (Homo sapiens, UniProt P25100); test: Potency against cloned human alpha 1D-adrenoceptor expressed in rat-1 fibroblasts.; type: functional
T5 sequence (P25100 whole entry): T4 sequence (whole entry)

[6] = molecular target: T6, Alpha-1B adrenergic receptor (Homo sapiens, UniProt P35368); test: Potency against cloned human alpha 1B adrenoceptor expressed in rat-1 fibroblasts.; type: functional
T6 sequence (P35368 whole entry): T3 sequence (whole entry)

[7] = molecular target: T5, Alpha-1D adrenergic receptor; test: Concentration required for 50% inhibition of binding against human Alpha-1D adrenergic receptor
[8] = molecular target: T2, Alpha-1A adrenergic receptor; test: Concentration required for 50% inhibition of binding against Alpha-1A adrenergic receptor in human
[9] = molecular target: T6, Alpha-1B adrenergic receptor; test: Concentration required for 50% inhibition of binding against human Alpha-1B adrenergic receptor

| SMILES | Max [1] | EC50 [2] | Max [3] | Max [4] | EC50 [5] | EC50 [6] | IC50 [7] | IC50 [8] | IC50 [9] |
| --- | --- | --- | --- | --- | --- | --- | --- | --- | --- |
| CC(C)NC(=O)c1ccccc1NCC1=NCCN1 | 102% | 50.1 nM | 95% | 59% | 316 nM | 126 nM | – | – | – |
| COC(=O)c1ccccc1NCC1=NCCN1 | 110% | 0.794 nM | 107% | 80% | 0.501 nM | 0.398 nM | – | – | – |
| CC(C)(C)OC(=O)c1ccccc1NCC1=NCCN1 | 96% | 7.94 nM | 81% | – | > 5010 nM | 63.1 nM | – | – | – |
| O=C(NC1CCCC1)c1ccccc1NCC1=NCCN1 | – | > 5010 nM | – | – | > 5010 nM | > 5010 nM | – | – | – |
| CCN(C)C(=O)c1ccccc1NCC1=NCCN1 | 105% | 50.1 nM | 98% | 69% | 631 nM | 251 nM | 6760 nM | 2040 nM | 10500 nM |
| CN(C)C(=O)c1ccccc1NCC1=NCCN1 | 104% | 20 nM | 93% | 58% | 200 nM | 79.4 nM | – | – | – |
| CCCCOC(=O)c1ccccc1NCC1=NCCN1 | 114% | 10 nM | 63% | 31% | 15.8 nM | 25.1 nM | – | – | – |
| CCCCNC(=O)c1ccccc1NCC1=NCCN1 | 103% | 20 nM | – | – | > 5010 nM | > 5010 nM | 1480 nM | 468 nM | 1950 nM |
| CCCNC(=O)c1ccccc1NCC1=NCCN1 | 104% | 7.94 nM | 77% | 69% | 158 nM | 79.4 nM | – | – | – |
| CCC(CC)OC(=O)c1ccccc1NCC1=NCCN1 | 94% | 20 nM | – | – | > 5010 nM | > 5010 nM | – | – | – |
| c1ccc(C2CC2)c(OCC2=NCCN2)c1 [CIRAZOLINE] | 93% | 12.6 nM | 72% | 31% | – | 63.1 nM | – | – | – |
| CC(C)CNC(=O)c1ccccc1NCC1=NCCN1 | 58% | 79.4 nM | 90% | 31% | 15.8 nM | 12.6 nM | – | – | – |
| CCC(C)NC(=O)c1ccccc1NCC1=NCCN1 (configuration not stated) | 82% | 501 nM | – | – | > 5010 nM | > 5010 nM | – | – | – |
| O=C(NC1CC1)c1ccccc1NCC1=NCCN1 | 99% | 15.8 nM | 50% | – | > 5010 nM | 251 nM | 1700 nM | 1050 nM | 2240 nM |
| CC(C)COC(=O)c1ccccc1NCC1=NCCN1 | 68% | 501 nM | 90% | 59% | 251 nM | 79.4 nM | – | – | – |
| CCNC(=O)c1ccccc1NCC1=NCCN1 | 102% | 12.6 nM | 64% | 33% | 79.4 nM | 200 nM | – | – | – |
| O=C(NC1CCC1)c1ccccc1NCC1=NCCN1 | – | > 5010 nM | – | – | > 5010 nM | > 5010 nM | – | – | – |
| CC(C)OC(=O)c1ccccc1NCC1=NCCN1 | 100% | 3.16 nM | – | – | > 5010 nM | > 5010 nM | 2000 nM | 224 nM | 1780 nM |
| CCCN(CC)C(=O)c1ccccc1NCC1=NCCN1 | 115% | 100 nM | – | – | > 5010 nM | > 5010 nM | – | – | – |
| O=C(c1ccccc1NCC1=NCCN1)N1CCCC1 | 105% | 126 nM | 79% | – | > 5010 nM | 316 nM | – | – | – |
| CNC(=O)c1ccccc1NCC1=NCCN1 | 104% | 2.51 nM | 99% | 115% | 10 nM | 1.58 nM | 89.1 nM | 214 nM | 692 nM |
| O=C(OC1CCCCC1)c1ccccc1NCC1=NCCN1 | – | > 5010 nM | – | – | > 5010 nM | > 5010 nM | – | – | – |
| CCC(C)OC(=O)c1ccccc1NCC1=NCCN1 (configuration not stated) | 96% | 1.26 nM | – | – | > 5010 nM | > 5010 nM | – | – | – |
| CCOC(=O)c1ccccc1NCC1=NCCN1 | 104% | 12.6 nM | 105% | 41% | 63.1 nM | 158 nM | – | – | – |
| c1ccc2c(CC3=NCCN3)cccc2c1 [NAPHAZOLINE] | 72% | 63.1 nM | – | – | > 5010 nM | > 5010 nM | – | – | – |
| O=C(OC1CCCC1)c1ccccc1NCC1=NCCN1 | 58% | 39.8 nM | – | – | > 5010 nM | > 5010 nM | – | – | – |
| CCN(CC)C(=O)c1ccccc1NCC1=NCCN1 | 105% | 31.6 nM | 32% | – | > 5010 nM | 2000 nM | 6610 nM | 851 nM | 5890 nM |
| O=C(c1ccccc1NCC1=NCCN1)N1CCCCC1 | 105% | 398 nM | 106% | 88% | 398 nM | 79.4 nM | – | – | – |
| Cc1cc(C(C)(C)C)c(O)c(C)c1CC1=NCCN1 | 74% | – | – | – | – | – | – | – | – |
